In ChEMBL document CHEMBL5291721, “A preclinical secondary pharmacology resource illuminates target-adverse drug reaction associations of marketed drugs” (Nat Commun, 2023):

Experiments:
[1] = molecular target: T1, 5-hydroxytryptamine receptor 1A (Homo sapiens, UniProt P08908); assay type: functional, cell-based
T1 sequence (P08908 whole entry): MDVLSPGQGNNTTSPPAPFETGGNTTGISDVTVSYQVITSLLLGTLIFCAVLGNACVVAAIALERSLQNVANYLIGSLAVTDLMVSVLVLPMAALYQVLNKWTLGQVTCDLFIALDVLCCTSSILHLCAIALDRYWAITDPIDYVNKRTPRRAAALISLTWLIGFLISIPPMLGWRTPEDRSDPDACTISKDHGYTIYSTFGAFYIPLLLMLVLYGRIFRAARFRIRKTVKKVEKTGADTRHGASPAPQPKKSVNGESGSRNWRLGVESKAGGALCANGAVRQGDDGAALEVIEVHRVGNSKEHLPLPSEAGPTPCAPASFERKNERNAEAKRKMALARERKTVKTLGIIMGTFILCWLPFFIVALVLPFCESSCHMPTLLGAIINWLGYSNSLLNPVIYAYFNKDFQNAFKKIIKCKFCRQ

[2] = molecular target: T2, Alpha-2A adrenergic receptor (Homo sapiens, UniProt P08913); assay type: functional, cell-based
T2 sequence (P08913 whole entry): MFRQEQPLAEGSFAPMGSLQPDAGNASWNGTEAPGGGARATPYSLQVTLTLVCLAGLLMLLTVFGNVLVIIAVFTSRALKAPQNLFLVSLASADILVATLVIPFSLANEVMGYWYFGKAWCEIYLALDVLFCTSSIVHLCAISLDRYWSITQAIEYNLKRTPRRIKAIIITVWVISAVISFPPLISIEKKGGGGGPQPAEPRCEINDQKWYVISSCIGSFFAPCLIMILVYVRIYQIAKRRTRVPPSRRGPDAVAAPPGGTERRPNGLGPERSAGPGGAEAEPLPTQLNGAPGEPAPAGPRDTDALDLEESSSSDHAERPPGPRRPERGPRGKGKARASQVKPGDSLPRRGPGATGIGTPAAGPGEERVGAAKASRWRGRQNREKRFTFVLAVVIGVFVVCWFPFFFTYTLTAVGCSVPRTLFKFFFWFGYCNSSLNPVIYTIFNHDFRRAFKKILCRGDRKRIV

[3] = molecular target: T2, Alpha-2A adrenergic receptor; assay type: functional, cell-based; remark: listed apart in the source
[4] = molecular target: T3, Sodium-dependent noradrenaline transporter (Homo sapiens, UniProt P23975)
[5] = molecular target: T4, Alpha-1A adrenergic receptor (Homo sapiens, UniProt P35348); assay type: functional, cell-based
T4 sequence (P35348 whole entry): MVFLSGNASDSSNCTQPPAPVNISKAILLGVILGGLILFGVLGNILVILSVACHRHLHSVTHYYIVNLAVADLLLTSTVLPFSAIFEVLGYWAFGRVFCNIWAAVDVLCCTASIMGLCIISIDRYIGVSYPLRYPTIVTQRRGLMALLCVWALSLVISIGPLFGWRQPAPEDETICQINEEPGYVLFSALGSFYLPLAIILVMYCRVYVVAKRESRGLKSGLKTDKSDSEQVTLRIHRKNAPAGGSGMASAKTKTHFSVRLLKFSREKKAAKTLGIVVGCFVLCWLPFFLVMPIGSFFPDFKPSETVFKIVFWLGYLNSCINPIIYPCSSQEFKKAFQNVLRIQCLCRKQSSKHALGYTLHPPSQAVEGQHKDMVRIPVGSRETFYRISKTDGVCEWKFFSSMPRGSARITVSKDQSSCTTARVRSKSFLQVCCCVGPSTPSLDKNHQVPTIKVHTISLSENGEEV

[6] = molecular target: T3, Sodium-dependent noradrenaline transporter; remark: listed apart in the source
Also: assay procedure not described here.

T3 sequence (P23975 whole entry): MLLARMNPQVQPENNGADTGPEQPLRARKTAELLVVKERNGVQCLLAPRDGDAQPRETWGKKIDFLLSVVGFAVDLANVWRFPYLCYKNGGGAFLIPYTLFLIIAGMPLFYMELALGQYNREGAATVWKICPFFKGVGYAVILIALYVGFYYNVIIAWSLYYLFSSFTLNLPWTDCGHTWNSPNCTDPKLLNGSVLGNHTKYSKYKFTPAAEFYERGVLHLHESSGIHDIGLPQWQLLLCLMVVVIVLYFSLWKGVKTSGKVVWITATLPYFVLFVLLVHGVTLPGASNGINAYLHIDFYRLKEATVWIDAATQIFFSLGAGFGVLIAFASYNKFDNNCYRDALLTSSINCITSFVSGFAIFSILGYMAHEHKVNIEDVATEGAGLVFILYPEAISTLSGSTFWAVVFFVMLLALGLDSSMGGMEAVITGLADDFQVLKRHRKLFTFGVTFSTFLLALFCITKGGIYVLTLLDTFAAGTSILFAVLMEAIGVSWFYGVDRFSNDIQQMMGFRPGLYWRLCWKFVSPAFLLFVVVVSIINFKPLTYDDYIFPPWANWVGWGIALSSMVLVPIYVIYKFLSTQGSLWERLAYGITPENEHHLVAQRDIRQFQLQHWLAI

SMILES	AC50 [1]	AC50 [2]	AC50 [3]	AC50 [4]	AC50 [5]	AC50 [6]
C[N+]1(C)CCC(=C(c2ccccc2)c2ccccc2)CC1	> 10 µM	> 10 µM	> 10 µM	> 10 µM	–	–
C[N+](C)(C)CCOP(=O)([O-])OC[C@H](O)CO	> 30 µM	> 30 µM	> 30 µM	> 30 µM	> 30 µM	–
CN(C)Cc1nnc2n1-c1ccc(Cl)cc1C(c1ccccc1)=NC2 [ADINAZOLAM]	> 10 µM	> 10 µM	> 10 µM	> 10 µM	–	–
CN(C)C/C=C/C(=O)Nc1cc2c(Nc3ccc(F)c(Cl)c3)ncnc2cc1O[C@H]1CCOC1 [AFATINIB]	> 30 µM	–	> 30 µM	> 30 µM	> 30 µM	–
Cc1ccccc1-n1c(CF)nc2ccc(N)cc2c1=O [AFLOQUALONE]	> 10 µM	> 10 µM	> 10 µM	> 30 µM	–	–
CCC1(c2ccc(N)cc2)CCC(=O)NC1=O (stereo unspecified) [AMINOGLUTETHIMIDE]	> 30 µM	> 30 µM	> 30 µM	> 30 µM	> 30 µM	–
CC1=C(C(=O)OC(C)C)C(c2cccc([N+](=O)[O-])c2)C(C(=O)OC2CN(C(c3ccccc3)c3ccccc3)C2)=C(N)N1 (stereo unspecified) [AZELNIDIPINE]	> 30 µM	> 30 µM	> 30 µM	5.8 µM	26 µM	–
CC(Cc1cccc(C(F)(F)F)c1)NCCOC(=O)c1ccccc1 (stereo unspecified) [BENFLUOREX]	4.3 µM	–	> 30 µM	23 µM	14 µM	–
CCOC(=O)c1ccc(N)cc1 [BENZOCAINE]	> 10 µM	> 10 µM	> 10 µM	> 10 µM	–	–
CC(C)(Oc1ccc(CCNC(=O)c2ccc(Cl)cc2)cc1)C(=O)O [BEZAFIBRATE]	> 30 µM	> 10 µM	> 10 µM	> 10 µM	> 30 µM	–
O=C(O)COCCN1CCN(C(c2ccccc2)c2ccc(Cl)cc2)CC1 (stereo unspecified) [CETIRIZINE]	> 10 µM	> 10 µM	> 10 µM	–	> 30 µM	–
C=C1CC[C@H](O)C/C1=C/C=C1\CCC[C@]2(C)[C@@H]([C@H](C)CCCC(C)C)CC[C@@H]12 [CHOLECALCIFEROL]	–	–	–	–	–	> 10 µM
C/C=C(/C(=C/C)c1ccc(O)cc1)c1ccc(O)cc1 [DIENESTROL]	> 10 µM	> 10 µM	> 10 µM	> 30 µM	–	–
CN[C@]1(c2ccccc2Cl)CCCCC1=O [ESKETAMINE]	> 30 µM	> 30 µM	> 30 µM	> 30 µM	> 30 µM	–
COc1ccc([C@@H]2CC(=O)c3c(O)cc(O)cc3O2)cc1O [HESPERETIN]	> 10 µM	> 10 µM	> 10 µM	> 10 µM	–	–
CNCCc1ccc(OC(=O)C(C)C)c(OC(=O)C(C)C)c1 [IBOPAMINE]	> 30 µM	–	3.48 µM	> 30 µM	–	–
CN(C)CCCN1c2ccccc2CCc2ccccc21 [IMIPRAMINE]	> 10 µM	> 10 µM	> 10 µM	–	0.41 µM	–
CCOC(=O)C1=C(C)NC(C)=C(C(=O)OCC)C1c1ccccc1/C=C/C(=O)OC(C)(C)C [LACIDIPINE]	> 30 µM	> 30 µM	> 30 µM	> 30 µM	> 30 µM	–
CCC[C@@H]1C[C@@H](C(=O)N[C@@H]([C@H]2O[C@H](SC)[C@H](O)[C@@H](O)[C@H]2O)[C@@H](C)O)N(C)C1 [LINCOMYCIN]	> 30 µM	> 30 µM	> 30 µM	> 10 µM	> 30 µM	–

SMILES	AC50 [1]	AC50 [2]	AC50 [3]	AC50 [4]	AC50 [5]	AC50 [6]
COC(=O)C1=C(C)NC(C)=C(C(=O)OCCN2CCN(C(c3ccccc3)c3ccccc3)CC2)C1c1cccc([N+](=O)[O-])c1 (stereo unspecified) [MANIDIPINE 6300]	> 30 µM	> 30 µM	> 30 µM	> 30 µM	> 30 µM	–
C=C1c2cccc(O)c2C(=O)C2=C(O)[C@]3(O)C(=O)C(C(N)=O)=C(O)[C@@H](N(C)C)[C@@H]3[C@@H](O)[C@H]12 [METHACYCLINE]	> 10 µM	> 10 µM	> 10 µM	> 10 µM	–	–
CN(Cc1cnc2nc(N)nc(N)c2n1)c1ccc(C(=O)N[C@@H](CCC(=O)O)C(=O)O)cc1 [METHOTREXATE]	> 10 µM	> 10 µM	> 10 µM	> 30 µM	> 30 µM	–
Cc1ccccc1N1C(=O)c2cc(S(N)(=O)=O)c(Cl)cc2NC1C (stereo unspecified) [METOLAZONE]	> 10 µM	> 10 µM	> 10 µM	> 10 µM	–	–
O=C(O)c1cccnc1Nc1cccc(C(F)(F)F)c1 [NIFLUMIC ACID]	> 10 µM	> 10 µM	> 10 µM	> 10 µM	–	–
O=C1c2cccc3c2[C@H](CCC3)CN1[C@@H]1CN2CCC1CC2 [PALONOSETRON]	> 30 µM	25 µM	> 30 µM	> 30 µM	29 µM	–
OC[C@H]1O[C@@H](n2cnc3c2NC=NC[C@H]3O)C[C@@H]1O [PENTOSTATIN]	> 30 µM	> 30 µM	> 30 µM	> 30 µM	–	–
O=C1c2ccccc2C(=O)C1c1ccccc1 [PHENINDIONE]	> 30 µM	> 10 µM	> 10 µM	> 10 µM	> 30 µM	–
Cc1cccc(C)c1NC(=O)CC12CCCN1CCC2 [PILSICAINIDE]	> 30 µM	> 30 µM	> 30 µM	> 30 µM	> 30 µM	–
CC(C)c1cccc(C(C)C)c1O [PROPOFOL]	> 30 µM	> 30 µM	> 30 µM	> 30 µM	> 30 µM	–
CN[C@@H](C)[C@@H](O)c1ccccc1 [PSEUDOEPHEDRINE]	> 10 µM	> 10 µM	> 10 µM	> 10 µM	–	–
CCCN1CC(NS(=O)(=O)N(CC)CC)CC2Cc3c(O)cccc3CC21 (stereo unspecified) [QUINAGOLIDE]	1.1 µM	> 30 µM	> 30 µM	21 µM	–	–
COC(=O)[C@H]1[C@H]2C[C@@H]3c4[nH]c5cc(OC)ccc5c4CCN3C[C@H]2C[C@@H](OC(=O)c2cc(OC)c(OC)c(OC)c2)[C@@H]1OC [RESERPINE]	> 10 µM	> 10 µM	> 10 µM	> 30 µM	–	13.6 µM
C[C@]12CCC(=O)C[C@@H]1CC[C@@H]1[C@@H]2CC[C@]2(C)[C@@H](O)CC[C@@H]12 [STANOLONE]	> 30 µM	> 30 µM	> 30 µM	> 30 µM	> 30 µM	–
O=C1OC(OC(=O)c2cccnc2Nc2cccc(C(F)(F)F)c2)c2ccccc21 (stereo unspecified) [TALNIFLUMATE]	> 30 µM	–	> 30 µM	> 30 µM	–	–
C[C@]12C=CC(=O)C=C1CC[C@@H]1[C@@H]2CC[C@]2(C)OC(=O)CC[C@@H]12 [TESTOLACTONE]	> 30 µM	> 30 µM	> 30 µM	> 10 µM	> 30 µM	–
Cc1ccc(C(=O)C(C)CN2CCCCC2)cc1 (stereo unspecified) [TOLPERISONE]	–	–	–	–	–	> 30 µM
CCOC(=O)c1c(CSc2ccccc2)n(C)c2cc(Br)c(O)c(CN(C)C)c12 [UMIFENOVIR]	> 30 µM	> 30 µM	> 30 µM	21 µM	–	–
